# Results taken from paper PMC4490784, “Compensatory induction of MYC expression by sustained CDK9 inhibition via a BRD4-dependent mechanism” (eLife, 2015).
# Experiments:
# Experiment in all cases: KINOMEscan binding assay
# KIT(L576P) = molecular target: T1, KIT(L576P) (Homo sapiens, UniProt P10721, L576P); conditions: read-out: % Retention on Solid Support
# T1 construct: purchased DiscoveRx KINOMEscan
# In short: (§1)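 Binding, not catalytic activity, is measured: the compound competes with an active-site-directed ligand. Screening concentrations were 1 and 10 µM, applied across more than 400 kinases.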
# [1] = molecular target: T2, RSK1(Kin.Dom.2-C-terminal) (Homo sapiens, UniProt Q15418); conditions: read-out: % Retention on Solid Support
# T2 construct: RSK1(Kin.Dom.2-C-terminal); purchased DiscoveRx KINOMEscan
# T2 sequence (Q15418 392-735 limits assumed): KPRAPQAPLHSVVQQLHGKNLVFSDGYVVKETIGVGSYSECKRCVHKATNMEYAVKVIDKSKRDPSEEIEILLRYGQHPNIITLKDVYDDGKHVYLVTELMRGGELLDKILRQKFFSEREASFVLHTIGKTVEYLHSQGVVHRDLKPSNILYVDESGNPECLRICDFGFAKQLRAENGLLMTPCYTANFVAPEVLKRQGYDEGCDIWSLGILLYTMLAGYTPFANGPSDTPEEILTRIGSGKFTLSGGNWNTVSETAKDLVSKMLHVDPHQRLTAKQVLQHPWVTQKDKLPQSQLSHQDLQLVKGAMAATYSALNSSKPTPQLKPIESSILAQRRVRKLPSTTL
# In short: as §1
# MAP4K4 = molecular target: T3, MAP4K4 (Homo sapiens, UniProt O95819); conditions: read-out: % Retention on Solid Support
# T3 construct: purchased DiscoveRx KINOMEscan
# In short: as §1
# TLK1 = molecular target: T4, TLK1 (Homo sapiens, UniProt Q9UKI8); conditions: read-out: % Retention on Solid Support
# T4 construct: purchased DiscoveRx KINOMEscan
# In short: as §1
# CDK11 = molecular target: T5, CDK11 (Homo sapiens, UniProt Q9BWU1)
# T5 construct: purchased DiscoveRx KINOMEscan
# T5 sequence (Q9BWU1 whole entry): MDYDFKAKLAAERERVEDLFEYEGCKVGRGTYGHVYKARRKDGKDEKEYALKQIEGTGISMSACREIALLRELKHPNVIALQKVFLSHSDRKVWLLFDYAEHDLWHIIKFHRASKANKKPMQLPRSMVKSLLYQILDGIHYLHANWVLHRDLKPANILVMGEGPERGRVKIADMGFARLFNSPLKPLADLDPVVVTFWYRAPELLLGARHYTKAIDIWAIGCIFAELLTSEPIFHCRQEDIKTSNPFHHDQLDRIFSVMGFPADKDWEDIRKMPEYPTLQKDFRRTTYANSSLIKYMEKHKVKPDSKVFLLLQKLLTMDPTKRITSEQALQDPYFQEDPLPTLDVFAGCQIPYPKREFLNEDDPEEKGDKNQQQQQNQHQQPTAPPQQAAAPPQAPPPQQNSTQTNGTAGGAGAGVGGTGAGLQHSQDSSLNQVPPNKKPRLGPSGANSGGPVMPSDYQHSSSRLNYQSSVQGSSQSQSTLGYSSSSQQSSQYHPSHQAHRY
# In short: as §1
# CHEK2 = molecular target: T6, CHEK2 (Homo sapiens, UniProt O96017); conditions: read-out: % Retention on Solid Support
# T6 construct: purchased DiscoveRx KINOMEscan
# In short: as §1
# CDK8 = molecular target: T7, CDK8 (Homo sapiens, UniProt P49336)
# T7 construct: purchased DiscoveRx KINOMEscan
# T7 sequence (P49336 whole entry): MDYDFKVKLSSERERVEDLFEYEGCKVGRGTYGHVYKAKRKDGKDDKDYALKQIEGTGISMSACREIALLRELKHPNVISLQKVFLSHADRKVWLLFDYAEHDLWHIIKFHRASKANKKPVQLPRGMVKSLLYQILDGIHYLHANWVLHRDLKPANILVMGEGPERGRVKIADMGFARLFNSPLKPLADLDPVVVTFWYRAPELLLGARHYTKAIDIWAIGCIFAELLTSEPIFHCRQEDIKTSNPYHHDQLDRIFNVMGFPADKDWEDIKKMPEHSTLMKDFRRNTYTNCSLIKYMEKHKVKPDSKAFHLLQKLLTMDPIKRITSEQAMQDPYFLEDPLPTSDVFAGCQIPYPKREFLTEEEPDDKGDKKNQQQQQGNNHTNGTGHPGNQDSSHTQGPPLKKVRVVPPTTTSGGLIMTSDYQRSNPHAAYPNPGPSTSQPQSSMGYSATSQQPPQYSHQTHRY
# In short: as §1
# STK35 = molecular target: T8, STK35 (Homo sapiens, UniProt Q8TDR2); conditions: read-out: % Retention on Solid Support
# T8 construct: purchased DiscoveRx KINOMEscan
# In short: as §1
# CDKL2 = molecular target: T9, CDKL2 (Homo sapiens, UniProt Q92772); conditions: read-out: % Retention on Solid Support
# T9 construct: purchased DiscoveRx KINOMEscan
# In short: as §1
# NLK = molecular target: T10, NLK (Homo sapiens, UniProt Q9UBE8); conditions: read-out: % Retention on Solid Support
# T10 construct: purchased DiscoveRx KINOMEscan
# In short: as §1
# MET(M1250T) = molecular target: T11, MET(M1250T) (Homo sapiens, UniProt P08581, M1250T)
# T11 construct: purchased DiscoveRx KINOMEscan
# In short: as §1
# NEK11 = molecular target: T12, NEK11 (Homo sapiens, UniProt Q8NG66); conditions: 1 µM i-CDK9; read-out: % Retention on Solid Support
# T12 construct: purchased DiscoveRx KINOMEscan
# In short: as §1
# PYK2 = molecular target: T13, PYK2 (Homo sapiens, UniProt Q14289); conditions: read-out: % Retention on Solid Support
# T13 construct: purchased DiscoveRx KINOMEscan
# In short: as §1
# FLT4 = molecular target: T14, FLT4 (Homo sapiens, UniProt P35916); conditions: read-out: % Retention on Solid Support
# T14 construct: purchased DiscoveRx KINOMEscan
# In short: as §1
# MRCKA = molecular target: T15, MRCKA (Homo sapiens, UniProt Q5VT25); conditions: read-out: % Retention on Solid Support
# T15 construct: purchased DiscoveRx KINOMEscan
# In short: as §1
# [2] = molecular target: T16, TYK2(JH2domain-pseudokinase) (Homo sapiens, UniProt P29597)
# T16 construct: TYK2(JH2domain-pseudokinase); purchased DiscoveRx KINOMEscan
# In short: as §1
# PRP4 = molecular target: T17, PRP4 (Homo sapiens, UniProt Q13523); conditions: read-out: % Retention on Solid Support
# T17 construct: purchased DiscoveRx KINOMEscan
# In short: as §1
# ACVR1B = molecular target: T18, ACVR1B (Homo sapiens, UniProt P36896); conditions: read-out: % Retention on Solid Support
# T18 construct: purchased DiscoveRx KINOMEscan
# In short: as §1
# BTK = molecular target: T19, BTK (Homo sapiens, UniProt Q06187)
# T19 construct: purchased DiscoveRx KINOMEscan
# In short: as §1
# CAMKK1 = molecular target: T20, CAMKK1 (Homo sapiens, UniProt Q8N5S9); conditions: read-out: % Retention on Solid Support
# T20 construct: purchased DiscoveRx KINOMEscan
# In short: as §1
# HIPK1 = molecular target: T21, HIPK1 (Homo sapiens, UniProt Q86Z02); conditions: read-out: % Retention on Solid Support
# T21 construct: purchased DiscoveRx KINOMEscan
# In short: as §1
# ULK1 = molecular target: T22, ULK1 (Homo sapiens, UniProt O75385)
# T22 construct: purchased DiscoveRx KINOMEscan
# In short: as §1
# CAMK1D = molecular target: T23, CAMK1D (Homo sapiens, UniProt Q8IU85); conditions: read-out: % Retention on Solid Support
# T23 construct: purchased DiscoveRx KINOMEscan
# T23 sequence (Q8IU85 whole entry): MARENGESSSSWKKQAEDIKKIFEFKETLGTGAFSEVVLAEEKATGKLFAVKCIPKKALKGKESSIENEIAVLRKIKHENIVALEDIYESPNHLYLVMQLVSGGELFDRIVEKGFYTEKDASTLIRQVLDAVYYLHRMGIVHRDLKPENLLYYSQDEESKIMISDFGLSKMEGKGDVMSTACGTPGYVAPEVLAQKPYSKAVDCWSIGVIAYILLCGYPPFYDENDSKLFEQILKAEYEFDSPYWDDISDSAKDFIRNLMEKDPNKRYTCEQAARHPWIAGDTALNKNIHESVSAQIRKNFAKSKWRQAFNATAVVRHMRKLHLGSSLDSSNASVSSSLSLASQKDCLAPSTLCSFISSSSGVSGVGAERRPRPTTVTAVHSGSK
# In short: as §1
# TAOK2 = molecular target: T24, TAOK2 (Homo sapiens, UniProt Q9UL54); conditions: read-out: % Retention on Solid Support
# T24 construct: purchased DiscoveRx KINOMEscan
# In short: as §1
# p38-gamma = molecular target: T25, p38-gamma (Homo sapiens, UniProt P53778); conditions: read-out: % Retention on Solid Support
# T25 construct: purchased DiscoveRx KINOMEscan
# T25 sequence (P53778 whole entry): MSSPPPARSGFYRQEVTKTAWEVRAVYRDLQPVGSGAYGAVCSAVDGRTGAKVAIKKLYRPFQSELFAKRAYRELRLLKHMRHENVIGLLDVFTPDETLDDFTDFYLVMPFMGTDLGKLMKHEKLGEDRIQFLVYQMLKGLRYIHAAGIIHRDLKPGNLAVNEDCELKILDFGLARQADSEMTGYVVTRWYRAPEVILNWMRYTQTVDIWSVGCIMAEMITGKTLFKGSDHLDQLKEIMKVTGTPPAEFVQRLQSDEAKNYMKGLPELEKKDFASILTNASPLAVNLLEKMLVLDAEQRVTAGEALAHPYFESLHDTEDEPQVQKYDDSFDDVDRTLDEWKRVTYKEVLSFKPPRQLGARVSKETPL
# In short: as §1
# [3] = molecular target: RPS6KA4(Kin.Dom.2-C-terminal) (Homo sapiens, UniProt O75676); conditions: read-out: % Retention on Solid Support
# In short: as §1
# CSNK1D = molecular target: T26, CSNK1D (Homo sapiens, UniProt P48730); conditions: read-out: % Retention on Solid Support
# T26 construct: purchased DiscoveRx KINOMEscan
# In short: as §1
# EPHA3 = molecular target: T27, EPHA3 (Homo sapiens, UniProt P29320); conditions: read-out: % Retention on Solid Support
# T27 construct: purchased DiscoveRx KINOMEscan
# T27 sequence (P29320 21-983): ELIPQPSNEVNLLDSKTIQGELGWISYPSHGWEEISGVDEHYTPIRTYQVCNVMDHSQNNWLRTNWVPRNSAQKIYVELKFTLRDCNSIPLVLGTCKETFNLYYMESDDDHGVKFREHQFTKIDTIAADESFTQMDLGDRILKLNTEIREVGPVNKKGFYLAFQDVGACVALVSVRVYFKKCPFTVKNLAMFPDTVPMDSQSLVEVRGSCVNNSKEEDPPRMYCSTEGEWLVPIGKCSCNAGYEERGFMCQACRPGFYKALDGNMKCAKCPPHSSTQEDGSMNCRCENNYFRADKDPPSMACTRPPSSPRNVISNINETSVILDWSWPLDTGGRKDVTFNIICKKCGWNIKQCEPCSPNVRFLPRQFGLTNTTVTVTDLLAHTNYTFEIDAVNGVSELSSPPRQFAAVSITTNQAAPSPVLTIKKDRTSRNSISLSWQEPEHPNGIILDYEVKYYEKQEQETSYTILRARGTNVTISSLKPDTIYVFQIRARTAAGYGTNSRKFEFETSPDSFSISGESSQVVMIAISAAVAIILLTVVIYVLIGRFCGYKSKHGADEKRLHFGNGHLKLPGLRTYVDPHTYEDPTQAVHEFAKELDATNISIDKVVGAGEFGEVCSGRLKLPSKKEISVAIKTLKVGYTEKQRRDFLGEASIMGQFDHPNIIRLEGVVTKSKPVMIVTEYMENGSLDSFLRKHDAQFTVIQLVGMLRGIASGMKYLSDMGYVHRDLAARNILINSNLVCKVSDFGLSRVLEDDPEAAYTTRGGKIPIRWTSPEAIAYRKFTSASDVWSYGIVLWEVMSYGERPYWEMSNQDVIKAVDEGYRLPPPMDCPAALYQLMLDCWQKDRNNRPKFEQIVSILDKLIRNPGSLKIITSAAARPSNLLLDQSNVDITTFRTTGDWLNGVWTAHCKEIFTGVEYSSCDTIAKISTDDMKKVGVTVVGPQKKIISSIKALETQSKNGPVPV
# In short: as §1
# BRSK2 = molecular target: T28, BRSK2 (Homo sapiens, UniProt Q8IWQ3); conditions: read-out: % Retention on Solid Support
# T28 construct: purchased DiscoveRx KINOMEscan
# T28 sequence (Q8IWQ3 whole entry): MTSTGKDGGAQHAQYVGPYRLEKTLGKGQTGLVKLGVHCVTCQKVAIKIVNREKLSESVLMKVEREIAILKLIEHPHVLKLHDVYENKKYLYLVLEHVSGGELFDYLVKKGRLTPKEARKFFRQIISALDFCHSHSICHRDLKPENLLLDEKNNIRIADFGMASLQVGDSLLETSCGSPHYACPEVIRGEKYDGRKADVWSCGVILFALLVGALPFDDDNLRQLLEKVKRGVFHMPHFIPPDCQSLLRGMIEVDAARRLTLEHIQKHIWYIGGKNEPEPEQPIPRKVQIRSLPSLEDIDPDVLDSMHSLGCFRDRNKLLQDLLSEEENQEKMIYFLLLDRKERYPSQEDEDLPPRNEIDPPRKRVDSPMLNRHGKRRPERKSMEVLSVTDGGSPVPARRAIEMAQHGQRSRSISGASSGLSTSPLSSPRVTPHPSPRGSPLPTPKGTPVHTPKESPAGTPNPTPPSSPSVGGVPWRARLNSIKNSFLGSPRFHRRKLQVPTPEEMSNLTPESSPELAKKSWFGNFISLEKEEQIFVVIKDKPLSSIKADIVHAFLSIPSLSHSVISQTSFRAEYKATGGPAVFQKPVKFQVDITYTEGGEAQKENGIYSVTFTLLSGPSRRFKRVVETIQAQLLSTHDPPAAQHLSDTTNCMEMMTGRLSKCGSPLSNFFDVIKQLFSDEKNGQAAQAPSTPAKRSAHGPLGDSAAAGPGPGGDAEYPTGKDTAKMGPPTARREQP
# In short: as §1
# T1 sequence (P10721 26-976 L576P): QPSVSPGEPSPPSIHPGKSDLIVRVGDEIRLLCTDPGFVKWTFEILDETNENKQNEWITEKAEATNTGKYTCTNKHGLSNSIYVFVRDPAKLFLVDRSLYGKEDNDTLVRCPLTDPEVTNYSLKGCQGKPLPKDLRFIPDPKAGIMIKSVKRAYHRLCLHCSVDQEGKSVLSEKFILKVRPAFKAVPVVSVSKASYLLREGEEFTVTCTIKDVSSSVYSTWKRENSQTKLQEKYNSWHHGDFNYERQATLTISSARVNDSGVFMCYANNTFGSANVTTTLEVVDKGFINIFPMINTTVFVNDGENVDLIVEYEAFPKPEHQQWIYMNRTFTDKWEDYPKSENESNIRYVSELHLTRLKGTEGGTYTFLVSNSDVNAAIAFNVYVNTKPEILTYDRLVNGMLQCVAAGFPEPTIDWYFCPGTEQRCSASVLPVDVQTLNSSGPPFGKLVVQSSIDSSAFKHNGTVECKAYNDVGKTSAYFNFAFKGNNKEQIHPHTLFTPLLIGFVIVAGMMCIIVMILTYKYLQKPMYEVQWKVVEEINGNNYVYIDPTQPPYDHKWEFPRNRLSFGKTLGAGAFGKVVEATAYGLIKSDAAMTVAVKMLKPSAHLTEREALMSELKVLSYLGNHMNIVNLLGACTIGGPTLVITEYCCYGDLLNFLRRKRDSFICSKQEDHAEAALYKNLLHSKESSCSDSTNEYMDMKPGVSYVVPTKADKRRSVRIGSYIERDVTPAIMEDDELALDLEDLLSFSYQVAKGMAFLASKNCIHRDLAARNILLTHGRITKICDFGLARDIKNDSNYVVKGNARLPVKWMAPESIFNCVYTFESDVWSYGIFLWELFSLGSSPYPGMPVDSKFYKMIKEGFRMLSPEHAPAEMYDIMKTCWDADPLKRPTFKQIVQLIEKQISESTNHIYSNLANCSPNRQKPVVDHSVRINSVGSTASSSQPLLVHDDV
structure (smiles),measurement,setting,value
"N[C@H]1CC[C@H](Nc2cc(-c3cccc(NCc4cccc(F)c4)n3)c(Cl)cn2)CC1 [i-CDK9, N2′-(trans-4-aminocyclohexyl)-5′-chloro-N6-(3-fluorobenzyl)-2,4′-bipyridine-2′,6-diamine]",remaining binding at 1 µM,KIT(L576P); 1 µM i-CDK9,91%
same,remaining binding at 10 µM,KIT(L576P); 10 µM i-CDK9,100%
same,remaining binding at 1 µM,[1]; 1 µM i-CDK9,93%
same,remaining binding at 10 µM,[1]; 10 µM i-CDK9,84%
same,remaining binding at 1 µM,MAP4K4; 1 µM i-CDK9,65%
same,remaining binding at 10 µM,MAP4K4; 10 µM i-CDK9,19%
same,remaining binding at 1 µM,TLK1; 1 µM i-CDK9,62%
same,remaining binding at 10 µM,TLK1; 10 µM i-CDK9,95%
same,% Retention on Solid Support,CDK11; 1 µM i-CDK9,94%
same,% Retention on Solid Support,CDK11; 10 µM i-CDK9,100%
same,remaining binding at 1 µM,CHEK2; 1 µM i-CDK9,98%
same,remaining binding at 10 µM,CHEK2; 10 µM i-CDK9,100%
same,% Retention on Solid Support,CDK8; 1 µM i-CDK9,44%
same,% Retention on Solid Support,CDK8; 10 µM i-CDK9,100%
same,remaining binding at 1 µM,STK35; 1 µM i-CDK9,100%
same,remaining binding at 10 µM,STK35; 10 µM i-CDK9,91%
same,remaining binding at 1 µM,CDKL2; 1 µM i-CDK9,80%
same,remaining binding at 10 µM,CDKL2; 10 µM i-CDK9,14%
same,remaining binding at 1 µM,NLK; 1 µM i-CDK9,100%
same,remaining binding at 10 µM,NLK; 10 µM i-CDK9,91%
same,% Retention on Solid Support,MET(M1250T); 1 µM i-CDK9,86%
same,% Retention on Solid Support,MET(M1250T); 10 µM i-CDK9,100%
same,remaining binding at 1 µM,NEK11,100%
same,remaining binding at 1 µM,PYK2; 1 µM i-CDK9,100%
same,remaining binding at 10 µM,PYK2; 10 µM i-CDK9,100%
same,remaining binding at 1 µM,FLT4; 1 µM i-CDK9,68%
same,remaining binding at 10 µM,FLT4; 10 µM i-CDK9,72%
same,remaining binding at 1 µM,MRCKA; 1 µM i-CDK9,100%
same,remaining binding at 10 µM,MRCKA; 10 µM i-CDK9,100%
same,% Retention on Solid Support,[2]; 1 µM i-CDK9,100%
same,% Retention on Solid Support,[2]; 10 µM i-CDK9,86%
same,remaining binding at 1 µM,PRP4; 1 µM i-CDK9,14%
same,remaining binding at 10 µM,PRP4; 10 µM i-CDK9,100%
same,remaining binding at 1 µM,ACVR1B; 1 µM i-CDK9,69%
same,remaining binding at 10 µM,ACVR1B; 10 µM i-CDK9,100%
same,% Retention on Solid Support,BTK; 1 µM i-CDK9,100%
same,% Retention on Solid Support,BTK; 10 µM i-CDK9,100%
same,remaining binding at 1 µM,CAMKK1; 1 µM i-CDK9,100%
same,remaining binding at 10 µM,CAMKK1; 10 µM i-CDK9,100%
same,remaining binding at 1 µM,HIPK1; 1 µM i-CDK9,44%
same,remaining binding at 10 µM,HIPK1; 10 µM i-CDK9,29%
same,% Retention on Solid Support,ULK1; 1 µM i-CDK9,80%
same,% Retention on Solid Support,ULK1; 10 µM i-CDK9,79%
same,remaining binding at 1 µM,CAMK1D; 1 µM i-CDK9,100%
same,remaining binding at 10 µM,CAMK1D; 10 µM i-CDK9,100%
same,remaining binding at 1 µM,TAOK2; 1 µM i-CDK9,82%
same,remaining binding at 10 µM,TAOK2; 10 µM i-CDK9,5.8%
same,remaining binding at 1 µM,p38-gamma; 1 µM i-CDK9,100%
same,remaining binding at 10 µM,p38-gamma; 10 µM i-CDK9,100%
same,remaining binding at 1 µM,[3]; 1 µM i-CDK9,100%
same,remaining binding at 10 µM,[3]; 10 µM i-CDK9,74%
same,remaining binding at 1 µM,CSNK1D; 1 µM i-CDK9,47%
same,remaining binding at 10 µM,CSNK1D; 10 µM i-CDK9,33%
same,remaining binding at 1 µM,EPHA3; 1 µM i-CDK9,85%
same,remaining binding at 10 µM,EPHA3; 10 µM i-CDK9,100%
same,remaining binding at 1 µM,BRSK2; 1 µM i-CDK9,93%
same,remaining binding at 10 µM,BRSK2; 10 µM i-CDK9,88%
